Test: xn = mol fraction of the nth substance listed
Settings: 101 kPa, Liquid; for viscosity: Capillary tube (Ostwald / Ubbelohde) method; for mass density: Vibrating tube method

CCC(=O)CC [pentan-3-one] + CCC(C)O
Settings | mass density, 298.15 K [kg/m3] | mass density, 308.15 K [kg/m3] | mass density, 318.15 K [kg/m3] | viscosity, 298.15 K [mPa·s] | viscosity, 308.15 K [mPa·s] | viscosity, 318.15 K [mPa·s]
x1 = 0.0848 | 803.03 | 794.48 | 785.52 | 2.069 | 1.539 | 1.172
x1 = 0.1511 | 803.42 | 794.8 | 785.78 | 1.602 | 1.246 | 0.976
x1 = 0.2353 | 803.97 | 795.22 | 786.14 | 1.229 | 0.986 | 0.802
x1 = 0.3023 | 804.42 | 795.58 | 786.43 | 1.039 | 0.854 | 0.711
x1 = 0.3793 | 804.94 | 795.99 | 786.77 | 0.879 | 0.734 | 0.622
x1 = 0.4676 | 805.54 | 796.47 | 787.16 | 0.761 | 0.637 | 0.55
x1 = 0.4927 | 805.71 | 796.61 | 787.27 | 0.731 | 0.612 | 0.531
x1 = 0.5536 | 806.12 | 796.95 | 787.54 | 0.657 | 0.57 | 0.499
x1 = 0.6269 | 806.62 | 797.36 | 787.87 | 0.6 | 0.524 | 0.461
x1 = 0.7129 | 807.21 | 797.84 | 788.26 | 0.536 | 0.482 | 0.429
x1 = 0.8104 | 807.89 | 798.4 | 788.7 | 0.494 | 0.446 | 0.403
x1 = 0.9043 | 808.59 | 798.96 | 789.15 | 0.466 | 0.419 | 0.378
x1 = 1 | 809.38 | 799.55 | 789.63 | 0.442 | 0.398 | 0.362

CCOC(=O)CCl [ethyl chloroethanoate] + CCC(C)O
Settings | mass density, 298.15 K [kg/m3] | mass density, 308.15 K [kg/m3] | mass density, 318.15 K [kg/m3] | viscosity, 298.15 K [mPa·s] | viscosity, 308.15 K [mPa·s] | viscosity, 318.15 K [mPa·s]
x2 = 0 | 1144.11 | 1131.46 | 1118.74 | 1.095 | 0.934 | 0.816
x2 = 0.1008 | 1111.91 | 1099.43 | 1086.98 | 1.055 | 0.895 | 0.778
x2 = 0.204 | 1078.95 | 1066.72 | 1054.42 | 1.041 | 0.877 | 0.755
x2 = 0.2885 | 1051.67 | 1039.71 | 1027.56 | 1.033 | 0.875 | 0.756
x2 = 0.3625 | 1027.45 | 1015.7 | 1003.8 | 1.048 | 0.88 | 0.753
x2 = 0.45 | 998.34 | 986.92 | 975.3 | 1.107 | 0.895 | 0.759
x2 = 0.5384 | 968.29 | 957.21 | 945.94 | 1.183 | 0.945 | 0.791
x2 = 0.6138 | 942.27 | 931.52 | 920.57 | 1.246 | 0.987 | 0.817
x2 = 0.6906 | 915.31 | 904.95 | 894.31 | 1.332 | 1.063 | 0.866
x2 = 0.7724 | 886.17 | 876.24 | 865.99 | 1.489 | 1.182 | 0.947
x2 = 0.8541 | 856.59 | 847.12 | 837.33 | 1.789 | 1.367 | 1.089
x2 = 0.9197 | 832.49 | 823.43 | 814.03 | 2.183 | 1.611 | 1.225

CCOC(=O)CCl [ethyl chloroethanoate] + CCC(=O)CC
Settings | mass density, 298.15 K [kg/m3] | mass density, 308.15 K [kg/m3] | mass density, 318.15 K [kg/m3] | viscosity, 298.15 K [mPa·s] | viscosity, 308.15 K [mPa·s] | viscosity, 318.15 K [mPa·s]
x2 = 0 | 1144.11 | 1131.46 | 1118.74 | 1.095 | 0.939 | 0.815
x2 = 0.0502 | 1127.54 | 1115 | 1102.39 | 1.05 | 0.902 | 0.783
x2 = 0.0877 | 1115.18 | 1102.73 | 1090.21 | 1.017 | 0.874 | 0.76
x2 = 0.1207 | 1104.29 | 1091.91 | 1079.49 | 0.987 | 0.85 | 0.741
x2 = 0.1692 | 1088.28 | 1076.05 | 1063.74 | 0.944 | 0.815 | 0.713
x2 = 0.2551 | 1059.87 | 1047.89 | 1035.82 | 0.87 | 0.756 | 0.666
x2 = 0.3266 | 1036.16 | 1024.36 | 1012.49 | 0.813 | 0.71 | 0.63
x2 = 0.413 | 1007.44 | 995.88 | 984.26 | 0.75 | 0.659 | 0.587
x2 = 0.4998 | 978.47 | 967.18 | 955.81 | 0.695 | 0.612 | 0.548
x2 = 0.574 | 953.63 | 942.56 | 931.39 | 0.653 | 0.575 | 0.517
x2 = 0.6638 | 923.44 | 912.62 | 901.71 | 0.604 | 0.533 | 0.48
x2 = 0.7475 | 895.2 | 884.6 | 873.95 | 0.562 | 0.498 | 0.449
x2 = 0.827 | 868.26 | 857.9 | 847.48 | 0.522 | 0.466 | 0.421
x2 = 0.9114 | 839.54 | 829.45 | 819.27 | 0.481 | 0.434 | 0.391

Reference: the NIST ThermoML archive (doi:10.1016/j.tca.2013.03.008)
